Drawing on patent US12410161B2, “Tetrahydrobenzo-quinoline sulfonamides derivative compounds” (UCB Biopharma SRL, priority 2019, dated 2025), this text covers thermal stability for one compound.

This data set in a line: Thermal stability note in synthesis of Example 2. The data set is classed as physicochemical. Particulars: observation on isolated title compound. As to the method: To a solution of Intermediate 27 (42 mg, 0.068 mmol) in N,N-dimethylformamide (1.5 mL) a solution of formic hydrazide (14 mg, 0.229 mmol) in N,N-dimethylformamide (0.3 mL) followed by mercury(II) chloride (62 mg, 0.229 mmol) were introduced. After 5 minutes stirring at room temperature under an atmosphere of nitrogen, a solution of triethylamine (23 mg, 0.229 mmol) in N,N-dimethylformamide (0.2 mL) was introduced and the reaction warmed to 80° C. for 1.7 hours. After cooling to room temperature, the reaction mixture was diluted with dichloromethane (10 mL), kieselguhr (1.0 g) was introduced, and the suspension stirred for 10 minutes. The suspension was then filtered and the filter-cake washed with dichloromethane (10 mL). Evaporation of the combined filtrates in-vacuo furnished a residue which was purified by low pH preparative liquid chromatography to furnish the title compound (2.3 mg at 88% purity LCMS-UV215, 5% yield) as a colourless solid. LCMS [m+H]^+ 553, RT 2.07 min (Method 3).

For `Cc1cc(Nc2nncn2C2CCc3cc4cnc(C5CC5)cc4c(S(=O)(=O)NCC(C)(C)F)c3C2)n(C)n1` (stereo not shown) [Example 2, 3-cyclopropyl-7-[3-[(2,5-dimethylpyrazol-3-yl)amino]-1,2,4-triazol-4-yl]-N-(2-fluoro-2-methylpropyl)-6,7,8,9-tetrahydrobenzo[g]isoquinoline-5-sulfonamide], the thermal stability result is recorded as “thermally unstable”.
